Measurements: US9023865B2, “Compounds that are ERK inhibitors” (Merck Sharp & Dohme Corp., priority 2011, dated 2015)

What follows are compounds tested against Active Human ERK2 (hERK2) (Homo sapiens (Human), UniProt P28482) (assay: Active Human ERK2 (hERK2) Activity Assay (IMAP-FP)). Conditions: phosphorylated active hERK2, 30 μM ATP; average; read-out: ERK 2 Human average IC50.
Format: biochemical
Experimental: Assays Active Human ERK2 (hERK2) Activity Assay:
Activated ERK2 activity was determined in an IMAP-FP assay (Molecular Devices). […] The final reaction in each well of 25 μL consists of 0.5 nM hERK2, 900 nM unlabeled peptide, 80 nM labeled-peptide, and 30 μM ATP. Phosphorylation reactions were allowed to proceed for 60 minutes and were immediately quenched by the addition of […] IMAP detection beads (1:1000 dilutions) in IMAP binding buffer (Molecular Devices) with 24 mM NaCl. Plates were read on EnVision reader after 60 minutes binding equilibration using Fluorescence Polarization protocol (Perkin Elmer).

Active Human ERK2 (hERK2), sequence (P28482 whole entry): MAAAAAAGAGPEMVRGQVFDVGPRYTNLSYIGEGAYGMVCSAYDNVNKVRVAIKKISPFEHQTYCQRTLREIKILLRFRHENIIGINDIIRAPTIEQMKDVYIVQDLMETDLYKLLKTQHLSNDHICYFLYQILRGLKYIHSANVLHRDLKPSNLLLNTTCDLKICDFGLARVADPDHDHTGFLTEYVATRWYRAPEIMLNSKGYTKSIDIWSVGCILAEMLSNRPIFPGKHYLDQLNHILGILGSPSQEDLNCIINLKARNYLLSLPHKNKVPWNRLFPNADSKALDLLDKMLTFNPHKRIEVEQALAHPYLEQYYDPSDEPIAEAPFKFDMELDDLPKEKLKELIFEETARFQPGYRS

Row | Compound | IC50 [nM]
1 | O=C(NCc1ncco1)Nc1cc2[nH]nc(-c3ccc(F)cc3)c2cn1 [Example 221] | 4.49
2 | COCCn1cc(-c2n[nH]c3cc(NC(=O)N[C@H](C)c4ccccc4)ncc23)cn1 [Example 289] | 28
3 | Cc1cc(-c2n[nH]c3cc(NC(=O)NCc4ncn[nH]4)ncc23)ccn1 [Example 422] | 5.42
4 | O=C(NCc1ccc(F)cc1)Nc1cc2[nH]nc(C3CC3)c2cn1 [Example 140, 1-(3-cyclopropyl-1H-pyrazolo[4,3-c]pyridin-6-yl)-3-(4-fluorobenzyl)urea] | 23.5
5 | O=C(NCC1CC1)Nc1cc2[nH]nc(C3CC3)c2cn1 [Example 148] | 84.3
6 | Cc1cc(-c2n[nH]c3cc(NC(=O)NC(C)c4ccc(-n5cncn5)cc4)ncc23)ccn1 (stereo not shown) [Example 375] | 12.8
7 | CCO[C@@H]1CN(C)C[C@H]1NC(=O)Nc1cc2[nH]nc(-c3ccc(F)cc3)c2cn1 [Example 320] | 25.4
8 | Cc1cc(-c2n[nH]c3cc(NC(=O)NC(C)C4CCOC4)ncc23)ccn1 (stereo not shown) [Example 528] | 12.7
9 | Cc1cc(-c2n[nH]c3cc(NC(=O)N[C@@H](C)c4ccccn4)ncc23)ccn1 [Example 345] | 5.37
10 | Cc1cc(-c2n[nH]c3cc(NC(=O)NC(C4CC4)C(F)(F)F)ncc23)ccn1 (stereo not shown) [Example 41, 1-(1-cyclopropyl-2,2,2-trifluoroethyl)-3-[3-(2-methylpyridin-4-yl)-1H-pyrazolo[4,3-c]pyridin-6-yl]urea] | 4.48
11 | Cc1cc(-c2n[nH]c3cc(NC(=O)NCc4ccc[n+]([O-])c4)ncc23)ccn1 [Example 508] | 11.6
12 | Cc1cc(-c2n[nH]c3cc(NC(=O)NCC4(c5ccc(OC(F)(F)F)cc5)CC4)ncc23)ccn1 [Example 268] | 91.6
13 | COCC(O)CNC(=O)c1n[nH]c2cc(NC(=O)N[C@H](C)c3ccccc3)ncc12 (stereo partly shown) [Example 133] | 11
14 | Cc1ccc(C(C)NC(=O)Nc2cc3[nH]nc(-c4ccnc(C)c4)c3cn2)nc1 (stereo not shown) [Example 339] | 6.08
15 | C[C@@H](NC(=O)Nc1cc2[nH]nc(CC#N)c2cn1)c1ccccc1 [Example 559, (R)-1-(3-(cyanomethyl)-1H-pyrazolo[4,3-c]pyridin-6-yl)-3-(1-phenylethyl)urea] | 14.5
16 | Cc1nnc(-c2n[nH]c3cc(NC(=O)N[C@H](C)c4ccccc4)ncc23)o1 [Example 681] | 7.7
17 | COC[C@H](NC(=O)Nc1cc2[nH]nc(-c3ccnc(F)c3)c2cn1)c1ccccc1 [Example 601] | 20.6
18 | Cc1cc(-c2n[nH]c3cc(NC(=O)NCC(c4ccccn4)N4CCOCC4)ncc23)ccn1 (stereo not shown) [Example 384] | 24.7
19 | Cc1cc(-c2n[nH]c3cc(NC(=O)NC4CCCC(Oc5cccc(F)c5)C4)ncc23)ccn1 (stereo not shown) [Example 648] | 28.2
20 | Cc1cc(-c2n[nH]c3cc(NC(=O)Nc4ccc(NCCc5ccccc5)nn4)ncc23)ccn1 [Example 55, 1-[3-(2-methylpyridin-4-yl)-1H-pyrazolo[4,3-c]pyridin-6-yl]-3-{6-[(2-phenylethyl)amino]pyridazin-3-yl}urea] | 35
21 | CSC1CN(C(=O)c2n[nH]c3cc(NC(=O)N[C@H](C)c4ccccc4)ncc23)C1 [Example 118] | 501
22 | Cc1cc(-c2n[nH]c3cc(NC(=O)NC4(c5ccc(F)cc5)CC4)ncc23)ccn1 [Example 343] | 18.7
23 | COC[C@H](NC(=O)Nc1cc2[nH]nc(-c3cnn(C)c3)c2cn1)c1ccccc1 [Example 600, 1-[(1R)-2-methoxy-1-phenylethyl]-3-[3-(1-methyl-1H-pyrazol-4-yl)-1H-pyrazolo[4,3-c]pyridin-6-yl]urea] | 31.9
24 | Cc1cc(-c2n[nH]c3cc(NC(=O)N[C@H]4CCOC4=O)ncc23)ccn1 [Example 456] | 253
25 | Cc1cc(-c2n[nH]c3cc(NC(=O)NC(C)c4ncccc4C)ncc23)ccn1 (stereo not shown) [Example 349] | 6.57
26 | Cc1cc(-c2n[nH]c3cc(NC(=O)NCCN4CCC(c5ccccc5)C4)ncc23)ccn1 (stereo not shown) [Example 401] | 20
27 | COC[C@@H](NC(=O)Nc1cc2[nH]nc(C3CC3(F)F)c2cn1)c1ccccc1 (stereo partly shown) [Example 163] | 4.89
28 | Cc1cc(-c2n[nH]c3cc(NC(=O)N[C@@H]4CCOc5cc(C#N)ccc54)ncc23)ccn1 [Example 266] | 70.6

More lines, now with the values ahead:

Row | IC50 [nM] | Compound
29 | 0.603 | C[C@@H](NC(=O)Nc1cc2[nH]nc(-c3cn[nH]c3)c2cn1)c1ccc(F)c(Cl)c1 [Example 74, 1-[(1R)-1-(3-chloro-4-fluorophenyl)ethyl]-3-[3-(1H-pyrazol-4-yl)-1H-pyrazolo[4,3-c]pyridin-6-yl]urea]
30 | 1.05 | COC[C@@H](NC(=O)Nc1cc2[nH]nc(-c3ccc(N4CCOCC4)nc3)c2cn1)c1ccc(F)cc1 [Example 297]
31 | 0.935 | Cc1cc(-c2n[nH]c3cc(NC(=O)NC(c4ccc(F)cc4)C4CCCO4)ncc23)ccn1 (stereo not shown) [Example 238]
32 | 0.748 | Cc1nc2ccc(-c3n[nH]c4cc(NC(=O)N[C@H](C)c5ccccc5)ncc34)cc2s1 [Example 87, 1-[3-(2-methyl-1,3-benzothiazol-6-yl)-1H-pyrazolo[4,3-c]pyridin-6-yl]-3-[(1R)-1-phenylethyl]urea]
33 | 2.44 | C[C@@H](NC(=O)Nc1cc2[nH]nc(C3CCC3)c2cn1)c1ccccc1 [Example 145]
34 | 0.357 | Cc1cc(-c2n[nH]c3cc(NC(=O)NC(CN)c4ccc(F)cc4)ncc23)ccn1 (stereo not shown) [Example 522]
35 | 2.87 | Cc1cc(-c2n[nH]c3cc(NC(=O)NCc4c(C)cc(Cl)cc4Cl)ncc23)ccn1 [Example 514]
36 | 3.54 | Cc1cc(-c2n[nH]c3cc(NC(=O)N[C@@H]4CCN(CC(F)(F)F)C4)ncc23)ccn1 [Example 326]
37 | 1.58 | CN1CCOC(CNC(=O)Nc2cc3[nH]nc(-c4ccc(F)cc4)c3cn2)C1 (stereo not shown) [Example 226]
38 | 0.217 | Cc1cc(-c2n[nH]c3cc(NC(=O)N[C@@H]4CN(C)C[C@H]4c4ccccc4)ncc23)ccn1 [Example 181]
39 | 1.34 | COC[C@@H](NC(=O)Nc1cc2[nH]nc(-c3ccn4ncnc4c3)c2cn1)c1ccc(F)cc1 [Example 300]
40 | 4.38 | COCCNC(=O)Nc1cc2[nH]nc(-c3ccc(C#N)cc3)c2cn1 [Example 624, 1-[3-(4-Cyanophenyl)-1H-pyrazolo[4,3-c]pyridin-6-yl]-3-(2-methoxyethyl)urea]
41 | 1.41 | Cc1cc(-c2n[nH]c3cc(NC(=O)NCc4ccc5c(c4)CNC5=O)ncc23)ccn1 [Example 369]
42 | 1.21 | Cc1cc(-c2n[nH]c3cc(NC(=O)NCC4CCCCO4)ncc23)ccn1 (stereo not shown) [Example 469]
43 | 2 | Cc1cc(-c2n[nH]c3cc(NC(=O)NCc4nc5ccccc5[nH]4)ncc23)ccn1 [Example 408]
44 | 1.36 | Cc1cc(-c2n[nH]c3cc(NC(=O)NC4CCc5nc(N)sc5C4)ncc23)ccn1 (stereo not shown) [Example 504]
45 | 0.823 | C[C@@H](NC(=O)Nc1cc2[nH]nc(-c3cnn(C)c3)c2cn1)C1CCCCC1 [Example 589]
46 | 1.57 | Cc1cc(-c2n[nH]c3cc(NC(=O)N[C@H]4CN(C)C[C@@H]4F)ncc23)ccn1 [Example 328, 1-((3S,4S)-4-fluoro-1-methylpyrrolidin-3-yl)-3-(3-(2-methylpyridin-4-yl)-1H-pyrazolo[4,3-c]pyridin-6-yl)urea]

Row | IC50 [nM] | Compound
47 | 0.236 | COC[C@@H](NC(=O)Nc1cc2[nH]nc(-c3ccncc3)c2cn1)c1ccccc1 [Example 545]
48 | 1.86 | CN1C[C@@H](NC(=O)Nc2cc3[nH]nc(-c4ccc(F)cc4)c3cn2)[C@H](c2ccccc2)C12COC2 [Example 557]
49 | 0.385 | Cc1cc(-c2n[nH]c3cc(NC(=O)NCc4ccsc4)ncc23)ccn1 [Example 475]
50 | 0.245 | Cc1cc(-c2n[nH]c3cc(NC(=O)NCc4cccc(F)c4)ncc23)ccn1 [Example 53, 1-(3-fluorobenzyl)-3-[3-(2-methylpyridin-4-yl)-1H-pyrazolo[4,3-c]pyridin-6-yl]urea]
51 | 2.72 | Cc1cc(-c2n[nH]c3cc(NC(=O)NCc4cc[nH]n4)ncc23)ccn1 [Example 419]
52 | 0.298 | COC[C@@H](NC(=O)Nc1cc2[nH]nc(-c3ccnc(C)c3)c2cn1)c1ccccc1 [Example 538]
53 | 2.45 | Cc1cc(-c2n[nH]c3c(F)c(NC(=O)NC(C)c4ccccn4)ncc23)ccn1 (stereo not shown) [Example 225]
54 | 1.45 | Cc1cc(-c2n[nH]c3cc(NC(=O)N[C@H]4CN(C)C[C@@H]4c4ccc(F)nc4)ncc23)ccn1 [Example 179]
55 | 1.17 | COC[C@@H](NC(=O)Nc1cc2[nH]nc(-c3ccnc(N4CCOCC4)c3)c2cn1)c1ccc(F)cc1 [Example 298]
56 | 0.251 | Cn1cc(-c2n[nH]c3cc(NC(=O)NCc4ccc(F)c(Cl)c4)ncc23)cn1 [Example 60, 1-(3-chloro-4-fluorobenzyl)-3-[3-(1-methyl-1H-pyrazol-4-yl)-1H-pyrazolo[4,3-c]pyridin-6-yl]urea]
57 | 0.309 | Cc1cc(-c2n[nH]c3cc(NC(=O)NCc4ccccc4OC(F)F)ncc23)ccn1 [Example 441]
58 | 2.62 | Cc1cc(-c2n[nH]c3cc(NC(=O)NCc4ncccc4F)ncc23)ccn1 [Example 447]
59 | 2.55 | Cc1cc(-c2n[nH]c3cc(NC(=O)NCc4ncnn4C)ncc23)ccn1 [Example 424]
60 | 0.307 | COc1cccc(F)c1CNC(=O)Nc1cc2[nH]nc(-c3ccnc(C)c3)c2cn1 [Example 485]
61 | 0.318 | COc1ccc(-c2n[nH]c3cc(NC(=O)N[C@H](C)c4ccccc4)ncc23)cn1 [Example 650]
62 | 1.4 | Cc1cc(-c2n[nH]c3cc(NC(=O)Nc4noc5ccccc45)ncc23)ccn1 [Example 337]
63 | 2.2 | COc1cccc(F)c1CN1CCC[C@@H](NC(=O)Nc2cc3[nH]nc(-c4ccc(F)cc4)c3cn2)C1 [Example 654]

Same assay, conditions: read-out: AERK2 IC50 (Active human ERK2 Activity Assay)

Row | IC50 [nM] | Compound
64 | 0.2 to 1.7 | C[C@@H](NC(=O)Nc1cc2[nH]nc(-c3cn[nH]c3)c2cn1)c1ccc(F)c(Cl)c1 [Example 74, 1-[(1R)-1-(3-chloro-4-fluorophenyl)ethyl]-3-[3-(1H-pyrazol-4-yl)-1H-pyrazolo[4,3-c]pyridin-6-yl]urea]
65 | 0.2 to 1.7 | Cc1nc2ccc(-c3n[nH]c4cc(NC(=O)N[C@H](C)c5ccccc5)ncc34)cc2s1 [Example 87, 1-[3-(2-methyl-1,3-benzothiazol-6-yl)-1H-pyrazolo[4,3-c]pyridin-6-yl]-3-[(1R)-1-phenylethyl]urea]
66 | 0.2 to 1.7 | Cc1cc(-c2n[nH]c3cc(NC(=O)NCc4cccc(F)c4)ncc23)ccn1 [Example 53, 1-(3-fluorobenzyl)-3-[3-(2-methylpyridin-4-yl)-1H-pyrazolo[4,3-c]pyridin-6-yl]urea]
67 | 0.2 to 1.7 | Cn1cc(-c2n[nH]c3cc(NC(=O)NCc4ccc(F)c(Cl)c4)ncc23)cn1 [Example 60, 1-(3-chloro-4-fluorobenzyl)-3-[3-(1-methyl-1H-pyrazol-4-yl)-1H-pyrazolo[4,3-c]pyridin-6-yl]urea]
